Measured values reported in ChEMBL document CHEMBL1201862, “PubChem BioAssay data set” (2004).
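Compound exposure: 48 hours, 5 concentrations, 96-well plates. GI50: concentration for 50% inhibition of growth.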 The source made the active and inactive calls. Cut-off read from the data, not from the text of the source: active = GI50 up to about 1.1 µM and inactive = higher.

Key:
Assay in all cases: NCI anticancer screen, dose series, 48 h
RPMI-8226 = test system: RPMI-8226
UACC-62 = test system: UACC-62
UACC-257 = test system: UACC-257
HT-29 = test system: HT-29
SN12C = test system: SN12C
UO-31 = test system: UO-31
A549 = test system: A549
A498 = test system: A498
M19-MEL = test system: M19-MEL
SNB-19 = test system: SNB-19
NCI-H23 = test system: NCI-H23
HOP-92 = test system: HOP-92
OVCAR-4 = test system: OVCAR-4
TK-10 = test system: TK-10
SF-295 = test system: SF-295
Malme-3M = test system: Malme-3M
HL-60 = test system: HL-60
NCI/ADR-RES = test system: NCI/ADR-RES
MDA-MB-231 = test system: MDA-MB-231
MDA-N = test system: MDA-N

Structure (SMILES)	GI50 (RPMI-8226)	GI50 (UACC-62)	GI50 (UACC-257)	GI50 (HT-29)	GI50 (SN12C)	GI50 (UO-31)	GI50 (A549)	GI50 (A498)	GI50 (M19-MEL)	GI50 (SNB-19)	GI50 (NCI-H23)	GI50 (HOP-92)	GI50 (OVCAR-4)	GI50 (TK-10)	GI50 (SF-295)	GI50 (Malme-3M)	GI50 (HL-60)	GI50 (NCI/ADR-RES)	GI50 (MDA-MB-231)	GI50 (MDA-N)
CCNC(=O)O/N=C1/C=C2CC[C@@H]3C(CC[C@@]4(C)C3CC[C@@H]4OC(=O)NCC)[C@@]2(C)CC1 (stereo not given in full)	2.52 µM (inactive)	2.67 µM (inactive)	2.24 µM (inactive)	3.27 µM (inactive)	4.28 µM (inactive)	1.78 µM (inactive)	3.98 µM (inactive)	> 100 µM (inactive)	3.13 µM (inactive)	2.48 µM (inactive)	3.07 µM (inactive)	4.43 µM (inactive)	2.47 µM (inactive)	2.56 µM (inactive)	2.41 µM (inactive)					
CCOc1c(Cc2ccccc2)c(=O)n2c3ccccc3n3c(=O)n(C)c(=O)c1c23	> 100 µM (inactive)	> 100 µM (inactive)	> 100 µM (inactive)	> 100 µM (inactive)	> 100 µM (inactive)	> 100 µM (inactive)	> 100 µM (inactive)	> 100 µM (inactive)	> 100 µM (inactive)	> 100 µM (inactive)	> 100 µM (inactive)	> 100 µM (inactive)	> 100 µM (inactive)	> 100 µM (inactive)	59.6 µM (inactive)	> 100 µM (inactive)				
CCCCCCCCCOC(=S)NCCCCC	19.5 µM (inactive)	29.2 µM (inactive)	24.8 µM (inactive)	26.8 µM (inactive)	26.2 µM (inactive)	17.2 µM (inactive)	28.2 µM (inactive)	24.3 µM (inactive)	39.3 µM (inactive)	35.1 µM (inactive)	26.7 µM (inactive)	20.7 µM (inactive)	33.9 µM (inactive)	18.4 µM (inactive)	47.1 µM (inactive)	29.8 µM (inactive)	16.6 µM (inactive)			
Cn1c(=O)c2nc(-c3ccc(Cl)cc3)oc2n(C)c1=O	> 100 µM (inactive)	> 100 µM (inactive)	> 100 µM (inactive)	> 100 µM (inactive)	> 100 µM (inactive)	> 100 µM (inactive)	> 100 µM (inactive)	> 100 µM (inactive)	> 100 µM (inactive)	> 100 µM (inactive)	> 100 µM (inactive)	> 100 µM (inactive)	> 100 µM (inactive)	> 100 µM (inactive)	> 100 µM (inactive)	> 100 µM (inactive)	> 100 µM (inactive)			
Cc1ccc(S(=O)OC2c3ccccc3Cc3ccccc32)cc1 (stereo not given)	36.1 µM (inactive)	17.7 µM (inactive)	19.3 µM (inactive)	32.1 µM (inactive)	20.3 µM (inactive)	18.3 µM (inactive)	27.3 µM (inactive)	21.9 µM (inactive)	21.1 µM (inactive)	23.8 µM (inactive)	18.6 µM (inactive)	17.2 µM (inactive)	17.8 µM (inactive)	21.1 µM (inactive)	23.9 µM (inactive)	13.1 µM (inactive)	17.6 µM (inactive)			
CC[C@](C)(O)C(=O)O[C@H]1C(=O)O[C@@H]2C[C@H]3C(C)=CC(=O)[C@@H](O)[C@]3(C)[C@H]3[C@@]4(O)OC[C@]32[C@@H]1[C@@H](C)[C@H]4O [GLAUCARUBINONE]	0.0548 µM (active)	0.051 µM (active)	0.0675 µM (active)		0.158 µM (active)	0.378 µM (active)	1.21 µM (inactive)	0.32 µM (active)	0.05 µM (active)	0.0933 µM (active)	0.0796 µM (active)	0.049 µM (active)	0.321 µM (active)	0.39 µM (active)	0.116 µM (active)		0.05 µM (active)	2.27 µM (inactive)	0.946 µM (active)	0.425 µM (active)
Oc1cc(-c2cccc(Br)c2)nc2cc3c(cc12)OCO3	15 µM (inactive)	1.75 µM (inactive)	5.24 µM (inactive)	30.9 µM (inactive)	5.6 µM (inactive)	5.81 µM (inactive)	7.24 µM (inactive)	3.08 µM (inactive)	4.37 µM (inactive)	3.37 µM (inactive)	5.38 µM (inactive)		> 30.8 µM (inactive)	12.9 µM (inactive)	1.06 µM (active)	2.7 µM (inactive)	3.57 µM (inactive)	4.56 µM (inactive)	10.1 µM (inactive)	0.31 µM (active)
CCCCCCCC/C=C1\CCC(CN2CCOCC2)C1=O (stereo not given)	0.551 µM (active)	5.35 µM (inactive)	8.67 µM (inactive)	6.98 µM (inactive)	5.7 µM (inactive)	8.36 µM (inactive)	15 µM (inactive)	15.8 µM (inactive)	8.65 µM (inactive)	11.2 µM (inactive)	10.2 µM (inactive)	16.6 µM (inactive)	13.3 µM (inactive)	2.77 µM (inactive)	14.7 µM (inactive)	10.5 µM (inactive)	3.11 µM (inactive)	3.79 µM (inactive)	2.23 µM (inactive)	9.55 µM (inactive)
COC(=O)NN1C(C)=C(C(=O)OC)C2(C#N)C(C(=O)OC)=C(C)N(NC(=O)OC)C12N (stereo not given)	> 100 µM (inactive)	> 100 µM (inactive)	> 100 µM (inactive)	> 100 µM (inactive)	> 100 µM (inactive)	> 100 µM (inactive)	> 100 µM (inactive)	> 100 µM (inactive)	> 100 µM (inactive)	> 100 µM (inactive)	> 100 µM (inactive)	> 100 µM (inactive)	> 100 µM (inactive)	> 100 µM (inactive)		> 100 µM (inactive)	> 100 µM (inactive)			
